Literature values in patent publication US20260144756A1 (US NANO FOOD AND DRUG INC, priority 2022, published 2026).

Settings: in vivo

elimination / terminal half-life: about 20 hours
SMILES: CC(C)(Oc1ccc(C(=O)c2ccc(Cl)cc2)cc1)C(=O)O [fenofibric acid]
